Laboratory results taken from patent US20100297020A1, “PHOSPHORYLATED AND PHOSPHONATED PYRONE ANALOGS FOR THERAPEUTIC TREATMENT” (Limerick Biopharma, Inc., priority 2008, published 2010).
Where two headings read alike, the source gives them in different places.

Key:
[1] = tested on: Dopamine D47; test: Secondary toxicity screen: Dopamine D47; format: binding
[2] = target: UDP Glucuronosyltransferase, UGT1A1 (Homo sapiens, UniProt P22309)
[3] = tested on: ATPase, Na+/K+, Heart, Pig; test: Secondary toxicity screen (MDS Pharma Services): ATPase, Na+/K+; format: biochemical
[4] = target: Protein Tyrosine Kinase, ZA70 (ZAP-70) (Homo sapiens, UniProt P43403); test: Secondary toxicity screen: ZAP-70; format: biochemical
Protein Tyrosine Kinase, ZA70 (ZAP-70), sequence (P43403 whole entry, species assumed): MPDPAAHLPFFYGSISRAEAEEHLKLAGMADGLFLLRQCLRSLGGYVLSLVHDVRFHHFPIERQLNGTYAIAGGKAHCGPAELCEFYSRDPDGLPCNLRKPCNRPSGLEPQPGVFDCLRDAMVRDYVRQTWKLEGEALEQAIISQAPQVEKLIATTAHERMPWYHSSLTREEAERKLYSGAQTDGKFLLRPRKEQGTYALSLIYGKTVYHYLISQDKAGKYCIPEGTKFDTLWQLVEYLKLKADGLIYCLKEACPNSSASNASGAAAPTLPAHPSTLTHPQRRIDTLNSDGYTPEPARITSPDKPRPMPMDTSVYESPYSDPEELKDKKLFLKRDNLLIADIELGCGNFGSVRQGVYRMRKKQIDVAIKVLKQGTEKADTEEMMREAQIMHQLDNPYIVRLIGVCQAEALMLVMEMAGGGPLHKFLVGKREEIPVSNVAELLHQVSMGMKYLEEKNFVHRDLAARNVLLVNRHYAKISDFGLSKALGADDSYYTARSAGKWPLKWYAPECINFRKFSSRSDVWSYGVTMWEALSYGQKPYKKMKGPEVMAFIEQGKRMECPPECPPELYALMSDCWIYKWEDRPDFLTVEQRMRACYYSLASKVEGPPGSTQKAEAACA

[5] = pH 8
Experimental: Quercetin-3′-O-phosphate is dissolved in water at about pH 8.
Fisetin-3′-O-phosphate is dissolved in water at about pH 8.
Quercetin-3′-O-methylphosphonate (Compound 2) is dissolved in water at about pH 8.

[6] = target: Nitric Oxide Synthase, Endothelial (eNOS) (Homo sapiens, UniProt P29474); test: Secondary toxicity screen: eNOS; format: biochemical
[7] = target: Protein Tyrosine Kinase, FGFR1 (Homo sapiens, UniProt P11362); test: Secondary toxicity screen: FGFR1; format: biochemical
Protein Tyrosine Kinase, FGFR1, sequence (P11362 22-822): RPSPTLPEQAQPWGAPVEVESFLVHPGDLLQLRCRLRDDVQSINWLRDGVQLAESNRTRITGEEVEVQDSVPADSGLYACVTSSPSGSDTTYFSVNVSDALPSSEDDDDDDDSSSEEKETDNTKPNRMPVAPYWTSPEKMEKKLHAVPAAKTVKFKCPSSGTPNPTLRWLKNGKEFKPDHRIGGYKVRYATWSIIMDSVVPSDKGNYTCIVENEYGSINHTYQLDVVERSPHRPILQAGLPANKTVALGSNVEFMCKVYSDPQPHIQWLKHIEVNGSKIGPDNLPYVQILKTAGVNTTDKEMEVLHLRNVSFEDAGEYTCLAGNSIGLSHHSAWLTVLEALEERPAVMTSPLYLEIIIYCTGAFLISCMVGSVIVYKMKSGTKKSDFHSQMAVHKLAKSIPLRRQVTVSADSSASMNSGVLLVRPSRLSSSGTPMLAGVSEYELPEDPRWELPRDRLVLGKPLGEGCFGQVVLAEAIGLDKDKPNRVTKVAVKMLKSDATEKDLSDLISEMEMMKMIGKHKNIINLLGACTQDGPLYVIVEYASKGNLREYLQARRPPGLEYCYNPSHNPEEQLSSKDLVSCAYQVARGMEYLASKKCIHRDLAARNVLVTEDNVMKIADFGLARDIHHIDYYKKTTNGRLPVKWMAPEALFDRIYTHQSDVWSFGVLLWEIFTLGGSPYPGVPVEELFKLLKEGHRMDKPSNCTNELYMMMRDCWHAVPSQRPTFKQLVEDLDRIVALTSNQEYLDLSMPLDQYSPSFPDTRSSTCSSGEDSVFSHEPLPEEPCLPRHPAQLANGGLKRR

[8] = target: Protein Tyrosine Kinase, Insulin Receptor (Homo sapiens, UniProt P06213); test: Secondary toxicity screen: Insulin Receptor kinase; format: biochemical
Protein Tyrosine Kinase, Insulin Receptor, sequence (P06213 28-1382): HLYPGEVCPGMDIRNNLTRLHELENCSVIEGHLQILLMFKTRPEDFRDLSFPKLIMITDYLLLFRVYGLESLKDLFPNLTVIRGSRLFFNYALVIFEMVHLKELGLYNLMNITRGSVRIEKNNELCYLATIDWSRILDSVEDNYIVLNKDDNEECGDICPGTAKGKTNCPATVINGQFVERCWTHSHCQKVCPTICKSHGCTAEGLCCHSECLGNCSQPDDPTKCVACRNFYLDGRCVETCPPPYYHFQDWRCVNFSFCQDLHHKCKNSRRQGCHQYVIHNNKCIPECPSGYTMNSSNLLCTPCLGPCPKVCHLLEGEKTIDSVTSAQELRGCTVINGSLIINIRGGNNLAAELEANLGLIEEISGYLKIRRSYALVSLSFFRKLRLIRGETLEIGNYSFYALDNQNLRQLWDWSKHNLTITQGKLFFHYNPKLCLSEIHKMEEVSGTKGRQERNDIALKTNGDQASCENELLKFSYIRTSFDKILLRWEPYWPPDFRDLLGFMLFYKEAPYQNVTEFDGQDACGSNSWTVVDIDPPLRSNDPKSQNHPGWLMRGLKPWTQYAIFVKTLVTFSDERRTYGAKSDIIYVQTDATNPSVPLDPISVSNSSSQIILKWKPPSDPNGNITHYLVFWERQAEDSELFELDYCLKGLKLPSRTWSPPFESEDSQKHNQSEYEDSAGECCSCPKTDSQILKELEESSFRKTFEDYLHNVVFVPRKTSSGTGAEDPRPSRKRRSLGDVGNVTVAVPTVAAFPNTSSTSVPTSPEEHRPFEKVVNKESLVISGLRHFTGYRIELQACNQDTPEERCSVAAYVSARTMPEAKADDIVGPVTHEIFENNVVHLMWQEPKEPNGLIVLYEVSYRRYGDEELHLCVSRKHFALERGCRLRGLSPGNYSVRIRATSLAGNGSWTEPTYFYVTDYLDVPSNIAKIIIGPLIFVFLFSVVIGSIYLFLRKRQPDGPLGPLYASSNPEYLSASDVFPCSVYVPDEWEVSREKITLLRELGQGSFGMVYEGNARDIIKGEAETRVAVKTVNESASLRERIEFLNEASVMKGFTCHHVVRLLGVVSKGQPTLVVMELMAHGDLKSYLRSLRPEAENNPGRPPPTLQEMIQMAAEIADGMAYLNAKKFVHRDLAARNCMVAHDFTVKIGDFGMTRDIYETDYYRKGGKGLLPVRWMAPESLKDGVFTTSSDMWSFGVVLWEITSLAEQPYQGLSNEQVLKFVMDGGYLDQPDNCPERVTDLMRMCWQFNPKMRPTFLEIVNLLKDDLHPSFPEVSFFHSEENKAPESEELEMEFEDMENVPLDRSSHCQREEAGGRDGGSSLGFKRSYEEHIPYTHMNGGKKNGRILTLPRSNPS

[9] = target: T1, AdenosineA1 (Homo sapiens, UniProt P30542); test: Secondary toxicity screen: Adenosine A1; format: binding
T1 sequence (P30542 1-326): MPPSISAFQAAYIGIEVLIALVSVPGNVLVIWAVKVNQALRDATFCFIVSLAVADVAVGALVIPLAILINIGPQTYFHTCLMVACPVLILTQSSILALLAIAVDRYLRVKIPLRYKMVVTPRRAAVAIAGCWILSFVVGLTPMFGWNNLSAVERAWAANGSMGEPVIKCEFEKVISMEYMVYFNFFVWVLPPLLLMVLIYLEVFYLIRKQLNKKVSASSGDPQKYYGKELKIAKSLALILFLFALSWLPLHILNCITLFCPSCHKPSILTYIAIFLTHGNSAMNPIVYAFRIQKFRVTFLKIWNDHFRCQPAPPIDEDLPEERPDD

[10] = tested on: Protein Tyrosine Kinase,; test: Secondary toxicity screen: Protein Tyrosine Kinase (name not given); format: biochemical
[11] = target: Protein Tyrosine Kinase, FGFR2 (Homo sapiens, UniProt P21802); test: Secondary toxicity screen: FGFR2; format: biochemical
Protein Tyrosine Kinase, FGFR2, sequence (P21802 22-821): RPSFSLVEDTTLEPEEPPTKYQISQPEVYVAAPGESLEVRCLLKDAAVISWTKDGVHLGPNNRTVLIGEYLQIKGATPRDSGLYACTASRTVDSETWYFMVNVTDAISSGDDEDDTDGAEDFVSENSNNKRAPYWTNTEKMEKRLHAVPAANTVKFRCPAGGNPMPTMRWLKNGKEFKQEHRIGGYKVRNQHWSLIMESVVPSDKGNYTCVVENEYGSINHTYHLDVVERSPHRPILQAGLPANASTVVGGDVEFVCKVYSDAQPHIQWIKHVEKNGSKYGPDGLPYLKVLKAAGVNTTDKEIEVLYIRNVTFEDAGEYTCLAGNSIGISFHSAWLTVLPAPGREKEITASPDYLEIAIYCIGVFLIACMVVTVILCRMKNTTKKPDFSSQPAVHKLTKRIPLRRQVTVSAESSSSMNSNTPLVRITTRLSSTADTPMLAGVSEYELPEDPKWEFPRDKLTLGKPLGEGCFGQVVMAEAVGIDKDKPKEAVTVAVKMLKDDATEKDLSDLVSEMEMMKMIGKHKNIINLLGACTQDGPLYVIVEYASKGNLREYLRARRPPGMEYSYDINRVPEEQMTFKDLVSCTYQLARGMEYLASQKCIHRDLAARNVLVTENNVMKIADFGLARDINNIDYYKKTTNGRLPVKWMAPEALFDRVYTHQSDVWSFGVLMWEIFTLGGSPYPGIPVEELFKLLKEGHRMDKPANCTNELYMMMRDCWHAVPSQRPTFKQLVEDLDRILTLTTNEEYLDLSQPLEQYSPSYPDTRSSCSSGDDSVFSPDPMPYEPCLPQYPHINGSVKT

[12] = tested on: Transporter, Monoamine rabbit; test: Secondary toxicity screen: Transporter, Monoamine; format: binding
[13] = target: Peripheral Benzodiazepine Receptor (PBR) (Homo sapiens, UniProt P30536); test: Secondary toxicity screen: Peripheral Benzodiazepine Receptor; format: binding
Peripheral Benzodiazepine Receptor (PBR), sequence (P30536 whole entry, species assumed): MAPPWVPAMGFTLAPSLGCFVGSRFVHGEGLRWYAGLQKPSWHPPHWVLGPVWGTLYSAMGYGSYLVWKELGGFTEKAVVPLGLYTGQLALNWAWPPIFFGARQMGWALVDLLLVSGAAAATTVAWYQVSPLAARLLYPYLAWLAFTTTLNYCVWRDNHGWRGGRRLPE

[14] = target: Adrenergic α2A (Homo sapiens, UniProt P08913); test: Secondary toxicity screen: Adrenergic α2A; format: binding
[15] = target: T2, AdrenergicA2A (Homo sapiens, UniProt P08913); test: AdrenergicA2A GTPγS functional assay; format: biochemical
T2 sequence (P08913 1-465): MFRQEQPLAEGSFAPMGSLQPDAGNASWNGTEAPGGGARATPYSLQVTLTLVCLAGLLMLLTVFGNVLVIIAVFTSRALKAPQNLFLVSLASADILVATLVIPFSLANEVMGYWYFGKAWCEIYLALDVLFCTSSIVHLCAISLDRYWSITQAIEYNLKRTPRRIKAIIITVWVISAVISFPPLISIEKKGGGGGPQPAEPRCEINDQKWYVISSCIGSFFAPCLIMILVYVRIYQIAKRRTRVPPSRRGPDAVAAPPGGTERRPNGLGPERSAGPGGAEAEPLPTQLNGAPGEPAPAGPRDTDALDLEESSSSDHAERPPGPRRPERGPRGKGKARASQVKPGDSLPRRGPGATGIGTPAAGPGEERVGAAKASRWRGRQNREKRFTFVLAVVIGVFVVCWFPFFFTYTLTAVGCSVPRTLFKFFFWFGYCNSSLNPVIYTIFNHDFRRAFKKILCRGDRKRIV
Experimental: (§1) The compound is additionally tested in AdenosineA1, AdrenergicA2A, DopamineD25, Histamine H1-, and μ-Opiate GTPγS functional assays using a concentration of 10 μM.
(§2) The compound may be additionally tested in AdenosineA1, AdrenergicA2A, DopamineD25, Histamine H1-, and μ-Opiate GTPγS functional assays using a concentration of 10 μM.
(§3) The compound can be additionally tested in AdenosineA1, AdrenergicA2A, DopamineD25, Histamine H1-, and μ-Opiate GTPγS functional assays using a concentration of 10 μM.

[16] = target: Serotonin (5-Hydroxytryptamine) 5-HT1A (Homo sapiens, UniProt P08908); test: Secondary toxicity screen: 5-HT1A; format: binding
Serotonin (5-Hydroxytryptamine) 5-HT1A, sequence (P08908 whole entry): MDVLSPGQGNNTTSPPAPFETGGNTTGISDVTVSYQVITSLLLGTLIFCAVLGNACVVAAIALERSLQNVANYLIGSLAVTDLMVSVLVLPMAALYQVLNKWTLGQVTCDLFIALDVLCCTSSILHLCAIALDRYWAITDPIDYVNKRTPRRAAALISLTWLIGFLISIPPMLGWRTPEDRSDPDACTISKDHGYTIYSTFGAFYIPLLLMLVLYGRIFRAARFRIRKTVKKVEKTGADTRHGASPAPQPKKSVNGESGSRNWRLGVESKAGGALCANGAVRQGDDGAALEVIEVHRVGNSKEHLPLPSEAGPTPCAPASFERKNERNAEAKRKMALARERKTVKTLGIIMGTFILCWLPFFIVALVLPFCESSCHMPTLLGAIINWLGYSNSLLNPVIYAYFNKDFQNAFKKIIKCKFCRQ

[17] = target: T1, AdenosineA1; test: AdenosineA1 GTPγS functional assay; format: biochemical
Experimental: as §1, §2, §3

[18] = target: UGT1A1 (UDP glucuronosyltransferase) (Homo sapiens, UniProt P22309); test: in vitro
UGT1A1 (UDP glucuronosyltransferase), sequence (P22309 26-533): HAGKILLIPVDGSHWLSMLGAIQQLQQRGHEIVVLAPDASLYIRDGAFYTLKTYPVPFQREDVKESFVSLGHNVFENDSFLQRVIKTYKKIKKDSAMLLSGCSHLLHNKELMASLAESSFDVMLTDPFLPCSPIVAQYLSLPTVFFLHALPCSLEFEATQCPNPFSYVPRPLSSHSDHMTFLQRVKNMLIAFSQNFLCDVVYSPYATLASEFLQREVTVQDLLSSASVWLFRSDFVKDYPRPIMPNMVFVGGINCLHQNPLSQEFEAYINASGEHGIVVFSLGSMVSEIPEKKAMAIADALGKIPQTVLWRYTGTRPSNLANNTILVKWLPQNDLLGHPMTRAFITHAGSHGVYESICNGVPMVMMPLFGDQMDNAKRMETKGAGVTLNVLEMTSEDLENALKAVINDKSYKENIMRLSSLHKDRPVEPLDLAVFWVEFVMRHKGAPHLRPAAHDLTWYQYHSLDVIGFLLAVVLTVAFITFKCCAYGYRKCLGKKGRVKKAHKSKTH

[19] = 10 uM, read-out: percent inhibition at 10 μM

UDP Glucuronosyltransferase, UGT1A1, sequence (P22309 26-533): as above

## O=c1c(O)c(-c2ccc(O)c(OP(=O)(O)O)c2)oc2cc(O)ccc12 [fisetin-3′-O-phosphate, Fisetin-3′-O-phosphate]
[1]
  percent inhibition at 10 μM: 51%
[2]
  percent inhibition at 10 μM: 52%
[3]
  percent inhibition at 10 μM: 65%
[4]
  percent inhibition at 10 μM: 74%
[5]
  degradation seen by NMR and HPLC: no degradation
[6]
  percent inhibition at 10 μM: 72%
[7]
  percent inhibition at 10 μM: 96%
[8]
  percent inhibition at 10 μM: 91%
[9]
  percent inhibition at 10 μM: 50%
[10]
  percent inhibition at 10 μM: 82%
[11]
  percent inhibition at 10 μM: 94%
[12]
  percent inhibition at 10 μM: 68%
[13]
  percent inhibition at 10 μM: 53%
[14]
  percent inhibition at 10 μM: 57%
[15]
  inhibition in the AdrenergicA2A assay: marked negative inhibition
[16]
  percent inhibition at 10 μM: 62%
[17]
  antagonist activity in the AdenosineA1 assay: 48%

## O=c1c(O)c(-c2ccc(O)c(OP(=O)(O)O)c2)oc2cc(O)cc(O)c12 [quercetin-3′-O-phosphate]
[1]; 10 uM
  percent inhibition at 10 μM: 51%
[3]; 10 uM
  percent inhibition at 10 μM: 65%
[4]; [19]
  inhibition at 10 µM: 74%
[5]
  degradation seen by NMR and HPLC: no degradation
[6]; [19]
  inhibition at 10 µM: 72%
[7]; [19]
  inhibition at 10 µM: 96%
[8]; [19]
  inhibition at 10 µM: 91%
[9]; [19]
  inhibition at 10 µM: 50%
[10]; 10 uM
  percent inhibition at 10 μM: 82%
[11]; [19]
  inhibition at 10 µM: 94%
[12]; 10 uM
  percent inhibition at 10 μM: 68%
[13]; [19]
  inhibition at 10 µM: 53%
[18]
  inhibition at 10 µM: 52%
[14]; [19]
  inhibition at 10 µM: 57%
[15]; 10 μM
  inhibition in the AdrenergicA2A assay: marked negative inhibition
[16]; [19]
  inhibition at 10 µM: 62%
[17]; 10 μM
  antagonist activity in the AdenosineA1 assay: 48%
